Experimental data from US4985558A, “1,4-dihydropyridine derivative” (Nikken Chemicals Co., Ltd., priority 1988, dated 1991).
Where “and” joins values, the source holds several entries; their conditions need not be identical. Equal values may be shown once.

What was measured:
ICR mice = assay: acute toxicity test; conditions: mouse, in vivo;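 also: intraperitoneal dosing with deaths counted over 10 days of observation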
Experimental: Male 6-week-old ICR mice were divided into groups of 2 to 5 mice per group. […] The drugs to be tested were administered in varying amounts of 250 to 2000 mg/kg to 5 or 7 groups (a geometrical series of .cent.2), at a dose volume of 10 ml/kg. In the Table, the respective compounds have the same meanings as described above.

[1] = system: vincristine (VCR)-resistant mouse leukemia (P388/VCR) cells; assay: Antitumor agent potentiating effect in vincristine-resistant tumor bearing mouse (Example 11, i.p. 5 days); assay type: in vivo
Experimental: The potentiating effect of the antitumor agent (T/V) % was determined according to the formula shown below. Verapamil was employed as the positive Control compound. […] In the Tables, Compound 1 is the compound obtained in Example 1, Compound 2 that obtained in Example 2, Compound 3 that obtained in Example 3, Compound 4 that obtained in Example 4, and Compound 5 that obtained in Example 5. [formula]

[2] = system: spontaneously hypertensive rats (SHR); conditions: rat, in vivo, ip, 100 mg/kg
Experimental: The systolic blood pressure was measured by using spontaneously hypertensive rats (SHR), which are a model of hypertension when examine the hypotensive activities of the compounds of the present invention and the positive Control compound. The rats were warmed for 5 minutes in a warming box at 55° C., and their blood pressure then measured by a tail cuff plethysmograph. The compounds of the present invention were administered singly and intraperitoneally at a dose of 100 mg/kg and the positive Control compound was administered singly and intraperitoneally at a dose of 10 mg/kg. […] Blood pressure measurements were taken before administration and 60 minutes after administration. Nicardipine was employed as the positive Control compound.

rat rectum smooth muscle = assay: Inhibitory effects on potassium contracture in rat rectum smooth muscle; assay type: cell-based; conditions: 5 min, K contraction 5.6 to 56.0 mM, read-out: Inhibition ratio; for inhibition at 0.1 µM: 10^-7 M; for inhibition at 0.01 µM: 10^-8 M
Experimental: Rat rectum (about 1.5 cm) was isolated and suspended in a Magnus tube. A Locke solution was employed as the nutrient solution, and a contraction of the intestinum rectum was caused by changing the potassium (K) concentration of this solution from 5.6 mmol (mM) to 56.0 mM. This contraction was a contraction through a membrane dependent Ca-channel mediated contraction based on depolarization by a K concentration change. The contraction was recorded by an FD-transducer and polygraph. The compounds of the present invention were permitted to act 5 minutes before changing the K concentration, and simultaneously with changing the K concentration. […] A judgement was made 5 minutes after changing the K concentration, and the difference in contraction before the concentration change was indicated as an inhibition % value. Verapamil and nicardipine were employed as the positive control compound .

[3] = compound 100 mg/kg i.p. + VCR 30 μg/kg i.p.
[4] = compound alone 100 mg/kg i.p., no VCR

Row | Compound | Mortality (ICR mice) | Potentiating effect T/V [1, 3] | Survival Days (Mean ± SD) [1, 3] | Survival ratio T/C [1, 3] | Survival Days (Mean ± SD) [1, 4] | Survival ratio T/C [1, 4] | Blood pressure change [2] | Systolic Blood Pressure 60 minutes after administration [2] | inhibition at 0.1 µM (rat rectum smooth muscle) | inhibition at 0.01 µM (rat rectum smooth muscle)
1 | CC1=C(C(=O)OCc2cccc(C)n2)C(C2=COCCO2)C(C(=O)OCc2cccc(C)n2)=C(C)N1 [Compound 2] | 0/4 and 1/5 and 0/5 | 130% | 13.7 ± 1.0 days | 140% | 10.3 ± 0.5 days | 105% | -15 mmHg | 204 mmHg | -2.1% | -5.6%
2 | CC1=C(C(=O)OCCCc2cccnc2)C(C2=COCCO2)C(C(=O)OCCCc2cccnc2)=C(C)N1 [Compound 3, bis[3-(3-pyridyl)propyl]4-[2-(5,6-dihydro-p-dioxinyl)]-2,6-dimethyl-1,4-dihydropyridine-3,5-dicarboxylate] | 4/4 and 3/4 and 1/5 and 2/5 and 0/5 | 130% | 13.7 ± 1.5 days | 140% | 10.3 ± 0.5 days | 105% |  |  | -4.2% | -11.5%
